{"source": "patent US4263301A", "about": "“β-Phenyl-β-hydroxyethylaminoalkyltheophyllines as inhibitors of biosynthesis of triglycerides” (Shell Oil Company, priority 1980, dated 1981)", "test_system": "synthesis of triglycerides (enzyme from pig adipose tissue)", "experiment": "Inhibition of triglyceride synthesis by enzyme preparation (homogenate supernatant) from pig adipose tissue, 14C-glycerol-3-phosphate incorporation", "type": "biochemical", "settings": "test compound 1000 micrograms per milliliter, 5% DMSO, incubated eight minutes at 37° C; compared to controls; average of two animals, three replicates each", "procedure": "The manner in which they cause this effect has not been established. Their effectiveness for this purpose has been ascertained by the following procedure.\nAn enzyme was prepared by homogenizing one gram of slices from pig adipose tissue, each slice being approximately 0.3 mm thick, in one-milliliter portions of a liquid medium (Liquid A). The homogenate then was centrifuged (10,000 g×15 minutes), and the supernatant phase (the enzyme) was poured through cheesecloth to remove fat that has risen to the top of the centrifuge tubes.\nLiquid A had the following composition (in water):\n0.15 M potassium chloride, 1 mM ethylenediaminetetracetic acid, 10 mM Hepes (N-2-hydroxyethylpiperazine-N'-2-ethanesulfonic acid), 1 mM DTT (dithiothreitol), pH=7.0.\nA solution of the test compound (Liquid B) was prepared: 10 milligrams of test compound plus 0.5 milliliter dimethylsulfoxide (DMSO) plus 1.83 milliliters of glass-distilled water.\nA premix (Liquid C) was freshly prepared before each test, from the following components. […]\n0.25 milliliter of enzyme then was added. […] Ten milliliters of a 2:1 (v/v) mixture of toluene and Triton X-100 containing 0.27% New England Nuclear Omnifluor was added, and the radioactivity was determined in a liquid scintillation counter. […]\nThe percent inhibition by the test compound compared to the controls […] was determined."}
{"smiles": "Cl.Cn1c(=O)c2c(ncn2CCNCC(O)c2cc(C(C)(C)C)c(O)c(C(C)(C)C)c2)n(C)c1=O", "note": "(centres unmarked) [7-(2-(2-(3,5-bis-(1,1-dimethylethyl)-4-hydroxyphenyl)-2-hydroxyethylamino)ethyl)-3,7-dihydro-1,3-dimethyl-1H-purine-2,6-dione, hydrochloride]", "values": [{"measurement": "Percent Inhibition", "result": 95}]}
{"smiles": "Cl.Cn1c(=O)c2c(ncn2CCCNCC(O)c2cc(C(C)(C)C)c(O)c(C(C)(C)C)c2)n(C)c1=O", "note": "(centres unmarked) [7-(3-(2-(3,5-bis-(1,1-dimethylethyl)-4-hydroxyphenyl)-2-hydroxyethylamino)propyl)-3,7-dihydro-1,3-dimethyl-1H-purine-2,6-dione, hydrochloride]", "values": [{"measurement": "Percent Inhibition", "result": 93}]}
